Measured values: US7091218B1 (priority 1999, dated 2006)
Counter-ions that a name gives are not always drawn.

Columns and labels:
[1] = target: T1, acetylcholinesterase (Rattus norvegicus, UniProt P37136); experiment: biochemical; conditions: rat brain homogenate as enzyme source; acetylthiocholine substrate, DTNB, absorbance at 412 nm
T1 construct: Using rat brain homogenate as a source of acetylcholinesterase; from tissue; host or cells: rat brain homogenate
T1 sequence (P37136 32-614): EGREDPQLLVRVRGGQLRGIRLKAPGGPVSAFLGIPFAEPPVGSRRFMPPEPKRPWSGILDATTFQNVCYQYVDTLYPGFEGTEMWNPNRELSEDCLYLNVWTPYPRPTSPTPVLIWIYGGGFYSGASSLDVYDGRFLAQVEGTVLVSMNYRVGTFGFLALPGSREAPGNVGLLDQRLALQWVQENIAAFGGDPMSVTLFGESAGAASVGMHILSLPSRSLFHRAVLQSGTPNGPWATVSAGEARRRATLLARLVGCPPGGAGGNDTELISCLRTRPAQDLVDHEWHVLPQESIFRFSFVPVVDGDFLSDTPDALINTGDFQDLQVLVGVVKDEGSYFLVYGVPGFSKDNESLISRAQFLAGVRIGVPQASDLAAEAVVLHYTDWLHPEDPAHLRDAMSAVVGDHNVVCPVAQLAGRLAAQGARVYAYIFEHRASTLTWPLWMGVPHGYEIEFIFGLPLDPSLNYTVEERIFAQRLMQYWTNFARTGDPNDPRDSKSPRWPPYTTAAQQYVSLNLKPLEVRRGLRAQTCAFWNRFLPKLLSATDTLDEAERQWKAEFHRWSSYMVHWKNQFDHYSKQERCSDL
Procedure: In Vitro Acetylcholinsterase Inhibitory Effect
Using rat brain homogenate as a source of acetylcholinesterase, esterase activity was assayed in accordance with the method of Ellman et al. ^1). That is, acetylthiocholin as a substrate, a test compound and DTNB (5,5′-dithiobis(2-nitrobenzoic acid)) were added to […] brain homogenate, and after incubation, the produced thiocholine was reacted with DTNB to produce a yellow product. This was measured as a change in absorbance at 412 nm to obtain acetylcholineesterase activity. The acetylcholineesterase inhibiting activity of each test compound was obtained as 50% inhibition concentration (IC50). Note that the test compounds were used after dissolving them in physiological saline. Ellman, G. L., Courtney, K. D., Andres, V. and Featherstone, R. M., (1961), Biochem. Pharmacol., 7, 88–95.

melting point [°C] | SMILES | IC50 [1] [nM]
153 to 154 | COc1cc2c(cc1OC)C(=O)C(CC1CCN(Cc3ccccc3)CC1)(N=[N+]=[N-])C2.Cl (stereo not drawn) | –
– | COc1cc2c(cc1OC)C(=O)C(Cl)(CC1CCN(Cc3ccccc3)CC1)C2 (stereo not drawn) [Example 1, 1-Benzyl-4-[(5,6-dimethoxy-2-chloro-1-indanon)-2-yl]methylpiperidine hydrochloride] | 2
– | CCOc1cc2c(cc1OCC)C(=O)C(Cl)(CC1CCN(Cc3ccccc3)CC1)C2 (stereo not drawn) [Example 6, hydrochloride] | 2
